Laboratory results as given in patent publication US20240345082A1, “IDENTIFICATION AND APPLICATION OF SELECTIVE CELL SURFACE MARKERS AND ADDITIONAL METHODS FOR HUMAN RED/GREEN CONE PHOTORECEPTOR PRECURSOR ENRICHMENT” (Wisconsin Alumni Research Foundation, priority 2023, published 2024).

Legend:
CPP microaggregates [1] = assay: Flow cytometric quantification of THRB2:tdTomato-positive red/green CPP cells in CPP microaggregates; format: cell-based, human; conditions: CPP microaggregate formation combined with MMC treatment (250 ng/ml), 10 days post microaggregate formation; increased from 17% (unsorted CRR ROs at D60)
CPP microaggregates [2] = assay: Ki-67 immunostaining (IHC) of MMC-treated ALCAM/CD166-sorted CPP microaggregates; conditions: for Ki-67 positive cells in CPP microaggregates: 7 dpt

CO[C@@]12[C@H](COC(N)=O)C3=C(C(=O)C(C)=C(N)C3=O)N1C[C@@H]1N[C@@H]12 [MMC, mitomycin C]
percentage of THRB2:tdTomato-positive red/green CPP cells (CPP microaggregates [1]): 89.5% | Ki-67 positive cells in CPP microaggregates (CPP microaggregates [2]; 100 ng/mL MMC): few | Ki-67 positive cells in CPP microaggregates (CPP microaggregates [2]; 250 ng/mL MMC): almost nil | morphology of CPP microaggregates (CPP microaggregates [2]; 500 ng/mL MMC): noticeable disruption | Ki-67 positive cells in CPP microaggregates (CPP microaggregates [2]; 500 ng/mL MMC): almost nil
